Series [1] has as its system rat. Particulars: Subchronic oral toxicity in rodents, fischer, Feed, dose end: 14 week, group: systemic.
Series [2] has as its system mouse. Particulars: Subchronic oral toxicity in rodents, b6c3f1, Feed, dose end: 14 week, group: systemic.
In series [3] the test system is rat. Particulars: Combined chronic toxicity/carcinogenicity, fischer, Oral, Feed, dose end: 2 year, group: systemic.
In series [4] the test system is mouse. Particulars: Carcinogenicity; b6c3f1; Oral; Feed; dose end: 2 year; group: systemic; systemic / pathology microscopic / liver / hypertrophy.
Series [5] deals with rat. Particulars: Subchronic oral toxicity in rodents, sprague dawley, Feed, dose end: 90 day, group: systemic, systemic / in life observation / clinical signs / soft stools + systemic / in life observation / clinical signs / defecation (diarrhea).
For series [6], the system named is mouse. Particulars: Carcinogenicity, cd1, Oral, Feed, dose end: 98 week, group: systemic.
Series [7] concerns rabbit. The following applies: Prenatal developmental toxicity study, new zealand white, Oral, Gavage/Intubation, dose end: 18 GD.
The subject of series [8] is rabbit. The following applies: Prenatal developmental toxicity study, new zealand white, Oral, Gavage/Intubation, dose end: 28 GD.
For series [9], the system named is rat. The following applies: Prenatal developmental toxicity study, wistar, Oral, Gavage/Intubation, dose end: 19 GD.
For series [10], the system named is dog. Particulars: Subchronic oral toxicity in nonrodent, beagle, Feed, dose end: 90 day, group: systemic.
Series [11] deals with rat. The following applies: Chronic toxicity; wistar; Oral; Feed; dose end: 364 day; group: systemic; systemic / pathology gross / eye / opacity + systemic / pathology microscopic / eye / corneal pannus + systemic / pathology microscopic / ….
Series [12] relates to rabbit. Particulars: Prenatal developmental toxicity study, himalayan, Oral, Gavage/Intubation, dose end: 28 GD.
Series [13] has as its system mouse. The following applies: Carcinogenicity, other, Oral, Feed, dose end: 78 week, group: systemic.
The test system of series [14] is rat. The following applies: Multigenerational reproductive toxicity study, wistar, Oral, Feed, dose end: 2 generation.
The subject of series [15] is rat. The following applies: Carcinogenicity, wistar, Oral, Feed, dose end: 24 month, group: systemic.
The subject of series [16] is rat. Particulars: Subchronic oral toxicity in rodents, wistar, Feed, dose end: 13 week, group: systemic.
Series [17] deals with dog. Particulars: Chronic toxicity, beagle, Oral, Feed, dose end: 364 day, group: systemic.
The test system of series [18] is mouse. Particulars: Subchronic oral toxicity in rodents, other, Feed, dose end: 91 day, group: systemic.
[19] abbreviates: systemic / clinical chemistry / alkaline phosphatase (alp/alk) / alkaline phosphatase (alp/alk).
The mark [20] stands for this setting: systemic / hematology / platelet / platelet.
[21] abbreviates: systemic / in life observation / body weight / body weight + systemic / in life observation / body weight / body weight gain + systemic / ….
The mark [22] stands for this setting: systemic / in life observation / body weight / body weight + systemic / pathology microscopic / liver / hypertrophy.
The mark [23] stands for this setting: systemic / pathology microscopic / liver / hypertrophy.
[24] abbreviates: systemic / pathology microscopic / liver / adenoma + systemic / pathology microscopic / liver / adenoma/carcinoma combined.
The mark [25] stands for this setting: group: developmental, developmental / developmental malformation / brain / misshapen cerebrum + developmental / developmental malformation / eye / malpositioned….
[26] abbreviates: group: maternal, systemic / in life observation / body weight / body weight gain.
The mark [27] stands for this setting: group: developmental, developmental / developmental malformation / bone / ossification sites + developmental / developmental malformation / bone / supernumerary.
Where [28] appears, read: group: developmental, developmental / developmental malformation / bone / ossification sites + developmental / developmental malformation / bone / supernumerary….
[29] abbreviates: group: maternal, systemic / clinical chemistry / tyrosine / tyrosine.
[30] abbreviates: group: developmental, developmental / developmental malformation / bone / full supernumerary + developmental / developmental malformation / bone / misshapen + ….
The mark [31] stands for this setting: systemic / in life observation / body weight / body weight gain + systemic / in life observation / food consumption / food efficiency + ….
Setting [32] is: systemic / urinalysis / ketones / ketones.
[33] abbreviates: group: developmental, developmental / developmental malformation / bone / [other] + developmental / developmental malformation / bone / incomplete ossification + ….
The mark [34] stands for this setting: group: maternal, reproductive / reproductive performance / aborted / aborted + systemic / in life observation / body weight / body weight gain + systemic / ….
Where [35] appears, read: systemic / in life observation / body weight / body weight + systemic / in life observation / body weight / body weight gain.
The mark [36] stands for this setting: group: offspring, systemic / organ weight / spleen / absolute + systemic / organ weight / spleen / relative to body weight.
Where [37] appears, read: group: parental, systemic / organ weight / kidney / absolute + systemic / organ weight / kidney / relative to body weight + systemic / organ weight / liver….
Where [38] appears, read: group: parental, systemic / organ weight / thyroid gland / absolute.
[39] abbreviates: systemic / in life observation / mortality / mortality + systemic / pathology gross / lymph node / enlarged + systemic / pathology gross / ….
[40] abbreviates: systemic / pathology gross / thyroid gland / altered colloid.
Where [41] appears, read: systemic / in life observation / food consumption / food efficiency + systemic / urinalysis / ketones / ketones + systemic / urinalysis / ph….
The mark [42] stands for this setting: systemic / in life observation / food consumption / food consumption + systemic / organ weight / testes / absolute + systemic / organ weight….

Some results are limits rather than exact numbers.

On to `O=S(=O)(c1ccc(Cl)cc1)c1ccc(Cl)cc1` [4,4'-Dichlorodiphenyl sulfone], for which the LEL in [1] (setting [19]) worked out at 2 mg/kg/day; in series [2] (setting [20]) it was 3.5 mg/kg/day; in series [3] (systemic / in life observation / body weight / body weight), 1.5 mg/kg/day; in series [4] it was 3.8 mg/kg/day. The NEL in [1] (setting [19]) was < 2 mg/kg/day; in series [2] (setting [20]) it was < 3.5 mg/kg/day; in series [3] (setting [22]) it was 0.5 mg/kg/day; in series [4] it was < 3.8 mg/kg/day. Also, the no observed adverse effect level (NOAEL) in series [1] (systemic / organ weight / liver / absolute + systemic / organ weight / liver / relative to body weight + systemic / clinical chemistry / …) was 2 mg/kg/day; in series [2] (setting [21]), 15 mg/kg/day; in [3] (setting [22]), 1.5 mg/kg/day; in series [4] it was < 3.8 mg/kg/day. For the same compound, the LOAEL is 6 mg/kg/day in series [1] (systemic / organ weight / liver / absolute + systemic / organ weight / liver / relative to body weight + systemic / pathology microscopic / …), 50 mg/kg/day in [2] (setting [21]), 5 mg/kg/day in series [3] (setting [23]) and 3.8 mg/kg/day in series [4].
Turning to `CCCCCC[C@H]1C(=O)O[C@H](C)[C@H](NC(=O)c2cccc(NC=O)c2O)C(=O)O[C@@H](C)[C@@H]1OC(=O)CC(C)C` [Antimycin A], in series [5], the LEL was 0.5 mg/kg/day, the LOAEL was 0.5 mg/kg/day, the NEL was < 0.5 mg/kg/day and the NOAEL was < 0.5 mg/kg/day.
In the case of `CC(Oc1cccc(Cl)c1)C(=O)O` (configuration not stated) [Cloprop], the LEL in series [6] (setting [24]) came to 98 mg/kg/day; in series [7] (setting [25]), 200 mg/kg/day; in [7] (setting [26]), 200 mg/kg/day. Further, the values for the NEL in [6] (setting [24]), in series [7] (setting [25]) and in [7] (setting [26]) were < 98 mg/kg/day, 100 mg/kg/day and 100 mg/kg/day, respectively. Further, the LOAEL in [6] (setting [23]) worked out at 402 mg/kg/day; in [7] (setting [25]), 200 mg/kg/day; in series [7] (setting [26]), 200 mg/kg/day. In addition, the figures for the NOAEL in [6] (systemic / pathology microscopic / liver / hypertrophy + systemic / pathology microscopic / liver / adenoma + systemic / pathology …), in series [7] (setting [25]) and in series [7] (setting [26]) were 98 mg/kg/day, 100 mg/kg/day and 100 mg/kg/day, respectively.
For `Cc1c(C(=O)c2c[nH]n(C)c2=O)ccc(S(C)(=O)=O)c1C1=NOCC1` [Topramezone], the LEL is 5 mg/kg/day in series [8] (setting [27]); 0.5 mg/kg/day in series [8] (setting [29]); 100 mg/kg/day in [9] (setting [30]); 100 mg/kg/day in [9] (setting [26]); 182 mg/kg/day in series [10] (setting [32]); 3.9 mg/kg/day in series [11]. The LEL in series [12] (setting [33]) was 50 mg/kg/day; in [12] (setting [34]), 450 mg/kg/day; in [13] (setting [21]), 19 mg/kg/day; in series [14] (setting [36]) it was 0.4 mg/kg/day; in series [14] (setting [38]), 0.5 mg/kg/day; in series [15] (setting [39]), 0.4 mg/kg/day. Besides, the LEL was found to be 1.1 mg/kg/day in [16] (setting [40]), 2.9 mg/kg/day in series [17] (setting [41]) and 406 mg/kg/day in [18] (systemic / organ weight / liver / relative to body weight). In addition, the LOAEL in series [8] (setting [27]) amounted to 5 mg/kg/day; in series [8] (setting [29]), 0.5 mg/kg/day; in series [9] (setting [30]) it was 100 mg/kg/day; in series [9] (setting [26]) it was 100 mg/kg/day; in series [10] (setting [31]), 1510 mg/kg/day; in series [11], 3.9 mg/kg/day. The lowest observed adverse effect level (LOAEL) amounted to 50 mg/kg/day in [12] (setting [33]); 450 mg/kg/day in series [12] (setting [34]); 19 mg/kg/day in series [13] (setting [35]); 4.2 mg/kg/day in series [14] (group: offspring, developmental / developmental landmark / preputial separation / preputial separation + systemic / in life observation / body weight / litter…); 4.2 mg/kg/day in series [14] (setting [37]); 3.6 mg/kg/day in series [15] (systemic / pathology microscopic / thyroid gland / hyperplasia + systemic / pathology microscopic / thyroid gland / hypertrophy + systemic…). In addition, the LOAEL in series [16] (systemic / pathology microscopic / pancreas / degeneration) is 2.1 mg/kg/day; in [17] (systemic / pathology microscopic / thyroid gland / hyperplasia), 15.3 mg/kg/day; in series [18] (setting [42]) it was > 2290 mg/kg/day. Moreover, the NEL in series [8] (setting [28]) is 0.5 mg/kg/day; in [8] (setting [29]), < 0.5 mg/kg/day; in series [9] (setting [30]) it was < 100 mg/kg/day; in series [9] (setting [26]) it was < 100 mg/kg/day; in series [10] (setting [32]), < 182 mg/kg/day; in series [11] it was 0.4 mg/kg/day. For the same compound, the NEL is < 50 mg/kg/day in series [12] (setting [33]); 150 mg/kg/day in series [12] (setting [34]); < 19 mg/kg/day in [13] (setting [21]); < 0.4 mg/kg/day in series [14] (setting [36]); < 0.5 mg/kg/day in [14] (setting [38]); < 0.4 mg/kg/day in series [15] (setting [39]). Besides, the NEL was < 1.1 mg/kg/day in series [16] (setting [40]), < 2.9 mg/kg/day in series [17] (setting [41]) and 51 mg/kg/day in series [18] (systemic / organ weight / liver / relative to body weight + systemic / in life observation / body weight / body weight gain + systemic / in …). The NOAEL was 0.5 mg/kg/day in [8] (setting [28]); < 0.5 mg/kg/day in series [8] (setting [29]); < 100 mg/kg/day in series [9] (setting [30]); < 100 mg/kg/day in series [9] (setting [26]); 535 mg/kg/day in series [10] (setting [31]); 0.4 mg/kg/day in [11]. Moreover, the NOAEL was < 50 mg/kg/day in series [12] (setting [33]); 150 mg/kg/day in [12] (setting [34]); < 19 mg/kg/day in series [13] (setting [35]); 0.4 mg/kg/day in [14] (group: offspring, developmental / developmental landmark / preputial separation / preputial separation + developmental / offspring survival late / viability …); 0.4 mg/kg/day in series [14] (setting [37]); 0.4 mg/kg/day in series [15] (setting [39]). Also, the results for the NOAEL in [16] (systemic / pathology microscopic / pancreas / degeneration + systemic / clinical chemistry / alkaline phosphatase (alp/alk) / alkaline …), in [17] (systemic / pathology microscopic / thyroid gland / hyperplasia + systemic / in life observation / body weight / body weight + systemic / in …) and in [18] (setting [42]) were 1.1 mg/kg/day, 2.9 mg/kg/day and ≥ 2290 mg/kg/day, respectively.

The term NOAEL denotes the highest dose or exposure tested at which no adverse effect was seen. Usually LOAEL stands for the lowest tested level that showed an adverse finding.

Values taken from EPA's ToxRefDB 2.
